Among the data in patent US9522920B2, “Bromodomain inhibitors and uses thereof” (Constellation Pharmaceuticals, Inc., priority 2010, dated 2016) are IC50 values, retold here.

One experiment deals with IL-6 secretion. In words: Cell-based IL-6 quantification assay (ELISA, Mesoscale) in LPS-stimulated THP-1 cells. The settings on record: read-out: IL6. In short, it runs like this: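 THP-1 cells stimulated with LPS at 4 μg/mL final and exposed to compounds for 16 h. Supernatant IL-6 measured by Mesoscale ELISA and normalized to CellTiter-Glo cell content. Percent inhibition derived from that ratio.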

The target of the next experiment is T1, BRD4(BD1) (Homo sapiens, UniProt O60885).
T1 construct: His; made in house
In words: BRD4 AlphaLisa binding assay (Alphascreen). In short, it runs like this:
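BRD4(BD1) (30 nM) incubated 20 min at room temperature with peptide (200 nM) and compound in 40 mM HEPES pH 7.0, 40 mM NaCl, 1 mM DTT, 0.01% BSA, 0.008% Brij-35, 1.2% DMSO.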
A general note: Bead proximity is the source of the signal in Alpha formats.

The subject of experiment [1] is MYC mRNA. In words: cMyc RNA quantification assay (QuantiGene) in MV4:11 cells. The note with it: Homo sapiens, MV4-11, 4 h, Table 14, MV4:11 cells, read-out: MYC-MV411. In kind it is cell-based. As to the method: (§1) MV4:11 (AML) or Raji (Burkitt's lymphoma) cells were seeded in a 96-well plate and incubated in the presence of various concentrations of compounds for 4 h. Relative mRNA levels were quantitated by using QuantiGene 2.0 assay (Affymetrix) according to the manufacturer's recommendation. Signals were detected by using an Envision plate reader (Perkin-Elmer). Biological duplicates were averaged and normalized to vehicle (DMSO) control to calculate percent MYC mRNA levels.

In experiment [2] the test system is MYC mRNA. In words: cMyc RNA quantification assay (QuantiGene) in Raji cells. In kind it is cell-based. The note with it: 4 h. As to the method: as §1
[3] abbreviates: Homo sapiens, THP-1, 16 h, Table 14, THP-1 cells, LPS, 16 h.
Where [4] appears, read: Table 14, BRD4 AlphaLisa Binding Assay, read-out: Alpha screen.
Setting [5] is: Table 6, BRD4(BD1) 30 nM, H4-tetraacetyl peptide 200 nM, read-out: BRD4 Alphascreen IC50.
Where [6] appears, read: Homo sapiens, THP-1, 16 h, Table 7, THP-1 cells, LPS 4 μg/mL, 16 h, normalised to CellTiter-Glo.
[7] abbreviates: Homo sapiens, Table 7, Raji (Burkitt's lymphoma) cells.
The mark [8] stands for this setting: Homo sapiens, Table 14, Raji cells.

Read-outs that look alike come from different tables or passages of the source.

For the compound `Cc1noc2c1-c1ccccc1C(c1ccc(Cl)cc1)=N[C@H]2CC(N)C(F)(F)F` (mixture of isomers) [Compound 232, Mixture of (2S)-3-((4S)-6-(4-chlorophenyl)-1-methyl-4H-benzo[c]isoxazolo[4,5-e]azepin-4-yl)-1,1,1-trifluoropropan-2-amine and (2R)-3-((4S)-6-(4-chlorophenyl)-1-methyl-4H-benzo[c]isoxazolo[4,5-e]azepin-4-yl)-1,1,1-trifluoropropan-2-amine], the IC50 with IL-6 secretion (setting [3]), on BRD4(BD1) (setting [4]) and in the experiment with MYC mRNA [1] was more than 1000 nM in each case.

With `COCCNC(=O)C[C@@H]1N=C(c2ccc(C#N)cc2)c2ccccc2-c2c(C)noc21` [Compound 150], the IC50 is less than 500 nM with IL-6 secretion (Table 7, THP-1 cells, LPS 4 μg/mL, 16 h, normalised to CellTiter-Glo); less than 500 nM in the experiment with MYC mRNA [2] (Table 7, Raji (Burkitt's lymphoma) cells); less than 500 nM on BRD4(BD1) (setting [5]).

As for `Cc1noc2c1-c1ccccc1C(N1CCOCC1)=N[C@H]2CC(N)=O` [Compound 152], the IC50 in the experiment on IL-6 secretion (setting [6]), in the experiment on MYC mRNA [2] (setting [7]) and at BRD4(BD1) (setting [5]) was more than 1000 nM throughout.

Take `CCOC(=O)NC1N=C(c2ccc(Cl)cc2)c2ccccc2-c2c1noc2C` (stereo not shown) [Compound 155, Ethyl (6-(4-chlorophenyl)-1-methyl-4H-benzo[c]isoxazolo[4,3-e]azepin-4-yl)carbamate]: the IC50 with IL-6 secretion (setting [6]) was 500 to 1000 nM; with MYC mRNA [2] (setting [7]), less than 500 nM; at BRD4(BD1) (setting [5]), less than 500 nM.

As to `CCNC(=O)C[C@@H]1N=C(c2ccc(Cl)cc2)c2ccccc2-c2c(C)noc21` [Compound 159, 2-((4S)-6-(4-chlorophenyl)-1-methyl-4H-benzo[c]isoxazolo[4,5-e]azepin-4-yl)-N-ethylacetamide], the IC50 in the experiment on IL-6 secretion (setting [6]), in the experiment on MYC mRNA [2] (setting [7]) and on BRD4(BD1) (setting [5]) was less than 500 nM in each case.

With `CCNC(=O)C[C@@H]1N=C(c2ccc(Cl)cc2)c2cc(OC)ccc2-c2c(C)noc21` [Compound 160, 2-((4S)-6-(4-chlorophenyl)-8-methoxy-1-methyl-4H-benzo[c]isoxazolo[4,5-e]azepin-4-yl)-N-ethylacetamide], the IC50 with IL-6 secretion (setting [6]), with MYC mRNA [2] (setting [7]) and on BRD4(BD1) (setting [5]) was less than 500 nM each time.

With `CCNC(=O)C[C@@H]1N=C(c2ccc(Cl)cc2)c2ccccc2-c2c1noc2C` [Compound 163, 2-((4S)-6-(4-chlorophenyl)-1-methyl-4H-benzo[c]isoxazolo[4,3-e]azepin-4-yl)-N-ethylacetamide], the results for the IC50 in the experiment on IL-6 secretion (setting [6]), with MYC mRNA [2] (setting [7]) and at BRD4(BD1) (setting [5]) were less than 500 nM, more than 1000 nM and less than 500 nM, respectively.

For `Cc1noc2c1-c1ccnc(N)c1C(c1ccc(Cl)cc1)=NC2` [Compound 172, 6-(4-Chlorophenyl)-1-methyl-4H-isoxazolo[5,4-c]pyrido[4,3-e]azepin-7-amine], the IC50 in the experiment with IL-6 secretion (Homo sapiens, THP-1, 16 h) was less than 500 nM; with MYC mRNA [2] (setting [7]) it was 500 to 1000 nM; at BRD4(BD1) (setting [5]), less than 500 nM.

In the case of `CNc1nccc2c1C(c1ccc(Cl)cc1)=NCc1onc(C)c1-2` [Compound 173, 6-(4-Chlorophenyl)-N,1-dimethyl-4H-isoxazolo[5,4-c]pyrido[4,3-e]azepin-7-amine], the IC50 in the experiment on IL-6 secretion (setting [6]), in the experiment with MYC mRNA [2] (setting [7]) and on BRD4(BD1) (setting [5]) was less than 500 nM throughout.

As to `CCNc1nccc2c1C(c1ccc(Cl)cc1)=NCc1onc(C)c1-2` [Compound 174, 6-(4-Chlorophenyl)-N-ethyl-1-methyl-4H-isoxazolo[5,4-c]pyrido[4,3-e]azepin-7-amine], the results for the IC50 with IL-6 secretion (setting [6]), with MYC mRNA [2] (setting [7]) and on BRD4(BD1) (setting [5]) were less than 500 nM, 500 to 1000 nM and less than 500 nM, respectively.

Take `Cc1noc2c1-c1ccnc(N(C)C)c1C(c1ccc(Cl)cc1)=NC2` [Compound 175, 6-(4-Chlorophenyl)-N,N,1-trimethyl-4H-isoxazolo[5,4-c]pyrido[4,3-e]azepin-7-amine]: the IC50 in the experiment on IL-6 secretion (setting [6]) was 500 to 1000 nM; in the experiment on MYC mRNA [2] (setting [7]), more than 1000 nM; on BRD4(BD1) (setting [5]) it was less than 500 nM.

On to `Cc1noc2c1-c1sc(C)c(C)c1C(Oc1ccccc1)=N[C@H]2CC(N)=O` [Compound 186, 2-((6S)-2,3,9-trimethyl-4-phenoxy-6H-isoxazolo[5,4-c]thieno[2,3-e]azepin-6-yl)acetamide], for which the IC50 was 500 to 1000 nM in the experiment on IL-6 secretion (Homo sapiens, THP-1, 16 h); more than 1000 nM with MYC mRNA [2] (setting [7]); 500 to 1000 nM at BRD4(BD1) (setting [5]).

With `Cc1noc2c1-c1sc(C)c(C)c1C(c1ccc(Cl)cc1)=N[C@H]2Cc1ncc[nH]1` [Compound 187, (6S)-6-((1H-imidazol-2-yl)methyl)-4-(4-chlorophenyl)-2,3,9-trimethyl-6H-isoxazolo[5,4-c]thieno[2,3-e]azepine], the IC50 in the experiment on IL-6 secretion (Homo sapiens, THP-1, 16 h) is more than 1000 nM; with MYC mRNA [2] (setting [7]), more than 1000 nM; at BRD4(BD1) (setting [5]) it was less than 500 nM.

In the case of `Cc1noc2c1-c1sc(C)c(C)c1C(c1ccc(Cl)cc1)=N[C@H]2Cc1nccs1` [Compound 188, (6S)-4-(4-chlorophenyl)-2,3,9-trimethyl-6-(thiazol-2-ylmethyl)-6H-isoxazolo[5,4-c]thieno[2,3-e]azepine], the IC50 with IL-6 secretion (setting [6]) is less than 500 nM; with MYC mRNA [2] (setting [7]) it was more than 1000 nM; on BRD4(BD1) (setting [5]), less than 500 nM.

With `Cc1noc2c1-c1ccccc1C(c1ccc(F)cn1)=N[C@H]2CC(N)=O` [Compound 196], the IC50 with IL-6 secretion (setting [3]) was 500 to 1000 nM; in the experiment with MYC mRNA [2] (setting [8]), more than 1000 nM; at BRD4(BD1) (setting [4]), more than 1000 nM.

Regarding `Cc1noc2c1-c1ccc(OC(F)(F)F)cc1C(c1ccc(Cl)cc1)=N[C@H]2CC(N)=O` [Compound 197], the IC50 with IL-6 secretion (setting [3]), in the experiment on MYC mRNA [2] (setting [8]) and at BRD4(BD1) (setting [4]) was less than 500 nM in each case.

For `Cc1noc2c1-c1sc(C)c(C)c1C(c1cscn1)=N[C@H]2CC(N)=O` [Compound 198], the IC50 with IL-6 secretion (setting [3]) is less than 500 nM; in the experiment on MYC mRNA [2] (setting [8]) it was 500 to 1000 nM; on BRD4(BD1) (setting [4]), less than 500 nM.

In the case of `Cc1noc2c1-c1ccccc1C(c1ccc(Cl)cc1)=N[C@H]2CC(=O)NCCF` [Compound 199], the IC50 with IL-6 secretion (setting [3]), in the experiment with MYC mRNA [2] (setting [8]) and at BRD4(BD1) (setting [4]) was less than 500 nM in each case.

With `Cc1noc2c1-c1ccc(Cl)cc1C(c1ccc(C(F)(F)F)cc1)=N[C@H]2CC(=O)O` [Compound 200], the IC50 with IL-6 secretion (setting [3]), with MYC mRNA [2] (setting [8]) and at BRD4(BD1) (setting [4]) was more than 1000 nM throughout.

As to `Cc1noc2c1-c1ccc(Cl)cc1C(c1ccc(C(F)(F)F)cc1)=N[C@H]2CC(N)=O` [Compound 201], the IC50 with IL-6 secretion (setting [3]) is less than 500 nM; in the experiment on MYC mRNA [2] (setting [8]), 500 to 1000 nM; at BRD4(BD1) (setting [4]), less than 500 nM.

In the case of `Cc1noc2c1-c1ccccc1C(c1ccc(Cl)cc1)=N[C@H]2CC(=O)NC(C)(C)C` [Compound 205], the IC50 in the experiment on IL-6 secretion (setting [3]) is less than 500 nM; in the experiment on MYC mRNA [2] (setting [8]), more than 1000 nM; at BRD4(BD1) (setting [4]), less than 500 nM.

As for `Cc1noc2c1-c1ccc(Cl)cc1C(c1ccc(F)cc1)=NC21CC1` [Compound 250, 8-Chloro-6-(4-fluorophenyl)-1-methylspiro[benzo[c]isoxazolo[4,5-e]azepine-4,1′-cyclopropane]], the IC50 in the experiment with IL-6 secretion (setting [3]) and with MYC mRNA [1] was more than 1000 nM in each case.

Consider `Cc1noc2c1-c1ccc(-c3ccc(N)nc3)cc1C(c1ccc(F)cc1)=NC21CC1` [Compound 251, 5-(6-(4-Fluorophenyl)-1-methylspiro[benzo[c]isoxazolo[4,5-e]azepine-4,1′-cyclopropan]-8-yl)pyridin-2-amine], for which the IC50 with IL-6 secretion (setting [3]) and in the experiment with MYC mRNA [1] was less than 500 nM throughout.
